According to US4150126A, “Novel enol esters of steroids, compositions containing such compounds, processes for their preparation and methods of treatment therewith” (Aktiebolaget Leo, priority 1976, dated 1979):

Assays:
[1] = Progestional activity, Clauberg test; format: in vivo; conditions: standard scale of McPhail, preliminary experiments
Source text: The progestional activities of compounds 1:1, 1:2, 1:14, 2:2, and 2:11 are investigated in the Clauberg test using the prinicpal procedure as described by Elton and Edgren (Endocrinology 63 (1958) 464) and using the standard scale of McPhail (J. Physiol., London, 8 (1934) 145).

[2] = test system: ventral prostate; assay: Androgenic effect in castrated male rats (ventral prostate weight); format: in vivo; conditions: both after subcutaneous and intraperitoneal administration; one daily injection for 7 days; preliminary experiments
Method: The androgenic activity, as described below, is determined with established methods (see e.g. Dorfman, R.: Methods in Hormone Research, vol. II, Acad. Press, New York and London 1962, p. 275).
The androgenic effect is assayed in castrated male rats. Beginning two weeks after castration the animals are given one daily injection of the compound for 7 days. The weight of the ventral prostate is determined on the 8th day.

[3] = Thymolytic activity (Hilger, Endocrine Bioassay Data, assay 8); format: in vivo; conditions: preliminary experiments
Source text: In preliminary experiments, invvestigating the thymolytic effect according to A. C.

[4] = test system: Ehrlich ascites tumour, ELD hyperdiploid (46 chromosomes); assay: Ehrlich ascites tumour growth inhibition in mice, i.p.; format: in vivo, SPF NMRI mice; conditions: one injection i.p.; for Tumour weight Treated/Control (%): killed on 8th day
Source text: (§1) The experimental design is in accordance with the standards set by the CCNSC (Cancer Cheomotherapy Reports, January 1959 and December 1962).
Ehrlich ascites tumour, ELD hyperdiploid
Experimental animals: SPF NMRI mice.
Tumour implant: 2 × 10^6 tumour cells i.p.
(§2) Therapy: One injection i.p. on the day following implantation.
(§3) Termination: The animals are killed on the 8th day.
Evaluation: Weight of tumours of test animals compared with
those of control animals.

[5] = test system: Hepatoma AH 130; assay: Hepatoma AH 130 tumour growth inhibition in rats, i.p.; format: in vivo, Sprague-Dawley rats; conditions: Hepatoma AH 130, one injection i.p.
Source text: (§4) LD50 is the dose that causes a 50 percent lethality of the animals, and ED50 is the dose that causes a 50 percent reduction of tumour size.
(§5) From the data below it is obvious that the compounds have a very low toxicity, and that the therapeutic indexes (T.I.), i.e. the ratios LD50/ED50, are very high.
as §1
(§6) Experimental animals: Sprague-Dawley rats.
Tumour implant: 5 × 10^6 tumour cells i.p.
as §2, §3
(§7) Evaluation: Weights of tumours of test animals are compared
(§8) with those of control animals.

[6] = test system: Walker carcinosarcoma 256; assay: Walker carcinosarcoma 256 tumour growth inhibition in rats, p.o.; format: in vivo, Sprague-Dawley rats; conditions: Walker carcinosarcoma 256, daily p.o. for 5 days
Source text: as §4, §5, §1
Walker carcinosarcoma 256
as §6
Tumour implant: Tumour pieces with 2-4 mm diameter, subcu-
Therapy: Daily p.o. administration for 5 days starting on
the day following implantation.
Termination: The animals are killed on the 9th day.
as §7, §8

With CC(=O)O[C@]1(C(C)=O)CC[C@H]2[C@@H]3CC=C4C=C(OC(=O)Cc5ccc(N(CCCl)CCCl)cc5)CC[C@]4(C)[C@H]3CC[C@@]21C [Compound 1:14, 17-acetoxy-3-[4-(N,N-bis(2-chloroethyl)amino)phenylacetoxy]pregna-3,5-dien-20-one] the progestional activity [1] was “considerable activity”.

With CC(=O)[C@H]1CC[C@H]2[C@@H]3CC=C4C=C(OC(=O)CCCc5ccc(N(CCCl)CCCl)cc5)CC[C@]4(C)[C@H]3CC[C@]12C [Compound 1:2, 3-/4-(4-(N,N-bis(2-chloroethyl)amino)phenyl)butanoyloxy/pregna-3,5-dien-20-one] the progestional activity [1] was “considerable activity”.

For CC(=O)O[C@H]1CC[C@H]2[C@@H]3CC=C4C=C(OC(=O)CCCc5ccc(N(CCCl)CCCl)cc5)CC[C@]4(C)[C@H]3CC[C@]12C [1:11, 17β-acetoxy-3-[4-(4-(N,N-bis(2-chloroethyl)amino)phenyl)butanoyloxy]androsta-3,5-diene], the androgenic effect [2] was “considerable effect”.

With CC(=O)OCC(=O)[C@@]1(OC(C)=O)CC[C@H]2[C@@H]3CC=C4C=C(OC(=O)CCCc5ccc(N(CCCl)CCCl)cc5)CC[C@]4(C)[C@H]3CC[C@@]21C [1:16, 17,21-diacetoxy-3-[4-(4-(N,N-bis(2-chloroethyl)amino)phenyl)butanoyloxy]-pregna-3,5-dien-20-one] the thymolytic effect [3] was “significant activity”.

For CC(=O)O[C@]1(C(C)=O)CC[C@H]2[C@@H]3CC=C4C=C(OC(=O)c5ccc(C)c(N(CCCl)CCCl)c5)CC[C@]4(C)[C@H]3CC[C@@]21C [2:11, 17-acetoxy-3-[3-(N,N-bis(2-chloroethyl)amino)-4-methylbenzoyloxy]pregna-3,5-dien-20-one], the Mortality ([4]; 1000 mg/kg) was 0/12, the “Tumour weight Treated/Control (%)” value ([4]; 1000 mg/kg) was 2% and the progestional activity [1] was “considerable activity”.

With C#C[C@]1(OC(C)=O)CC[C@H]2[C@@H]3CC=C4C=C(OC(=O)CCCc5ccc(N(CCCl)CCCl)cc5)CC[C@@H]4[C@H]3CC[C@@]21C [Compound 2:2, 17β-acetoxy-3/4-(4-(N,N-bis(2-chloroethyl)amino)phenyl)butanoyloxy/-17α-ethynylestra-3,5-diene] the progestional activity [1] was “considerable activity”.

With CC(=O)O[C@H]1CC[C@H]2[C@@H]3CC=C4C=C(OC(=O)Cc5ccc(N(CCCl)CCCl)cc5)CC[C@]4(C)[C@H]3CC[C@]12C [1:3] the androgenic effect [2] was “considerable effect”.

For CC(=O)O[C@]1(C(C)=O)CC[C@H]2[C@@H]3CC=C4C=C(OC(=O)CCCc5ccc(N(CCCl)CCCl)cc5)CC[C@]4(C)[C@H]3CC[C@@]21C [Compound 1:1, 17-acetoxy-3-/4-(4-(N,N-bis(2-chloroethyl)amino)phenyl)butanoyloxy/pregna-3,5-dien-20-one], the anti-tumour activity [5] was “exhibit anti-tumour activity”, the Mortality ([4]; 500 mg/kg) was 0/12 and the “Tumour weight Treated/Control (%)” value ([4]; 500 mg/kg) was 1%. For the same compound, the progestional activity [1] was “considerable activity”.

For CC(=O)O[C@H]1CC[C@H]2[C@@H]3CCC4CC(OC(=O)CCCc5ccc(N(CCCl)CCCl)cc5)=CC[C@]4(C)[C@H]3CC[C@]12C (stereo partly drawn) [1:12, 17β-acetoxy-3-[4-(4-(N,N-bis(2-chloroethyl)amino)phenyl)butanoyloxy]androst-2-ene], the androgenic effect [2] was “considerable effect”.

In the case of CCC(=O)O[C@H]1CC[C@H]2[C@@H]3CC=C4C=C(OC(=O)[C@H](Cc5ccc(N(CCCl)CCCl)cc5)NC(C)=O)CC[C@]4(C)[C@H]3CC[C@]12C [1:13, 3-[(2S)-2-acetamido-3-(4-(N,N-bis(2-chloroethyl)amino)phenyl)propanoyloxy]-17β-propanoyloxyandrosta-3,5-diene], the anti-tumour activity [5] was “exhibit anti-tumour activity”.

In the case of CC(=O)O[C@H]1CC[C@H]2[C@@H]3CC[C@H]4CC(OC(=O)c5ccc(C)c(N(CCCl)CCCl)c5)=CC[C@]4(C)[C@H]3CC[C@]12C [Compound 2:1, 17β-acetoxy-3-/3-(N,N-bis(2-chloroethyl)amino)-4-methylbenzoyloxy/androst-2-ene], the anti-tumour activity [6] was “exhibit anti-tumour activity”.

For CC(=O)OCC(=O)[C@@]1(OC(C)=O)CC[C@H]2[C@@H]3CC=C4C=C(OC(=O)CCCc5ccc(N(CCCl)CCCl)cc5)CC[C@]4(C)[C@H]3C(=O)C[C@@]21C [1:15, 17,21-diacetoxy-3-[4-(4-(N,N-bis(2-chloroethyl)amino)phenyl)butanoyloxy]pregna-3,5-dien-11,20-dione], the thymolytic effect [3] was “significant activity”.

With CC(=O)OCC(=O)[C@H]1CC[C@H]2[C@@H]3CC=C4C=C(OC(=O)CCCc5ccc(N(CCCl)CCCl)cc5)CC[C@]4(C)[C@H]3CC[C@]12C [1:17, 21-acetoxy-3-[4-(4-(N,N-bis(2-chloroethyl)amino)phenyl)butanoyloxy]-pregna-3,5-dien-20-one] the thymolytic effect [3] was “significant activity”.
